Measured values as given in patent US10350271B2, “Lipidated peptides for lowering blood glucose” (USTAV ORGANICKE CHEMIE A BIOCHEMIE AKADEMIE VED CR, V.V.I., priority 2014, dated 2019).
Numbered stars: 1 amine (or outer) side, 2 acyl side, 3 side chain; on linkers, the order of the positions; unused ones are H or OH. Side chains are listed from the residue outwards. Peptide text beside a SMILES is read from it. * marks the point of attachment. TTDA(Palmitoyl) = CCCCCCCCCCCCCCCC(=O)NCCCOCCOCCOCCCN*; Suc = O=C(CCC(=O)[*:2])[*:1]

Experiments:
[1] = biological target: T1, human PrRP receptor GPR10 (Homo sapiens, UniProt P49683); assay: Competitive binding in CHO cells transfected with human GPR10 (human 125I-PrRP31); conditions: for % of PrRP31, GPR10 human receptor transfected in CHO cells: affinity relative to PrRP31
T1 construct: host or cells: CHO cells
T1 sequence (P49683 1-370): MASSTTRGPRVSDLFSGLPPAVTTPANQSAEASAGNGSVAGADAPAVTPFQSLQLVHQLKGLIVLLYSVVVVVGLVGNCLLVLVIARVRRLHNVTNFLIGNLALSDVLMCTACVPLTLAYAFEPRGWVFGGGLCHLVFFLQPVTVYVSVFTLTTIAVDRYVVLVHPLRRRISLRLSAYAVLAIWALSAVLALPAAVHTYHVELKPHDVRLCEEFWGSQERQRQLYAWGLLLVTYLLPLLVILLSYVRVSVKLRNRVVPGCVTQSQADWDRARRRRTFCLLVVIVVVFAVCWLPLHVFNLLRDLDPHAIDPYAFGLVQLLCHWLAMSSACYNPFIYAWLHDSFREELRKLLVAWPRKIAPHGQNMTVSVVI
How it was run: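 GPR10-transfected CHO cells (40-80 thousand/well) incubated 60 min at room temperature with 5×10^-11 mol·l^-1 human 125I-PrRP31 and unlabeled analog at 10^-11 to 10^-4 mol·l^-1 in Tris binding buffer pH 7.4. Cells solubilized in 0.1 mol/l NaOH, γ-counted; one-site nonlinear regression fit.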

rat PrRP receptor = biological target: T2, rat PrRP receptor (Rattus norvegicus, UniProt Q64121); assay: Competitive binding in RC-4B/C rat pituitary cells (125I-rat PrRP31); conditions: for % of PrRP31, RC-4B/C rat pituitary cells: affinity relative to PrRP31
T2 construct: host or cells: RC-4B/C rat pituitary cell line
T2 sequence (Q64121 1-370): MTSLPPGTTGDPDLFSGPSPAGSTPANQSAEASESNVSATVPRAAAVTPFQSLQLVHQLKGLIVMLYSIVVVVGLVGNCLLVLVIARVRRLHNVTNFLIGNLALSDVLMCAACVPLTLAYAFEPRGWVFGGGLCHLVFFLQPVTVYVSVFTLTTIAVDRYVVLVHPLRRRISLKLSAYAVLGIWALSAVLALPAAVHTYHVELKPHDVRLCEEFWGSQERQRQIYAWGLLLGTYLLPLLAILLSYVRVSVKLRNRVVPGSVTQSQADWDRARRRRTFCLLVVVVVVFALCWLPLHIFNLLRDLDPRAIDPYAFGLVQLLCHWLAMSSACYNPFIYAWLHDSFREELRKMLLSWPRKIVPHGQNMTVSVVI
How it was run: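 Intact rat pituitary RC-4B/C cells incubated 60 min at room temperature with […] rat 125I-PrRP31 and unlabeled analog (10^−11 to 10^−4 mol·l^−1) in HEPES pH 7.4 buffer. Cell-bound radioactivity γ-counted after NaOH lysis; one-site competition fit.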

Wistar rats = assay: Food intake in fasted rats after SC injection; assay type: in vivo; conditions: overnight fasted rats, compared to controls given vehicle
Protocol: NMRI mice, C57BL/6 mice, and Wistar rats (AnLab, Prague, Czech Republic) were housed in a temperature of 23° C. and a daily cycle of 12 h light and dark (light from 6:00). They were given ad libitum water and a standard chow diet that contained 25, 9 and 66% of calories of protein, fat and carbohydrate respectively. Energy content of the feed was 3.4 kcal/g (St-1, Mlýn Kocanda, Czech Republic). Db/db mice and their controls (C57BL/6 background) were obtained from Taconic (Denmark), housed under the same conditions as described above, and fed by Altromin (Taconic, Denmark). ZDF-Lepr^fa/Crl, diabetic fa/fa male rats were obtained from Charles River (France), housed under same conditions as described above, and fed with a Purina 5008 diet (IPS Product Supplies Limited, UK). All experiments followed the ethical guidelines for animal experiments and the law of the Czech Republic Nr. 246/1992.
In experiments with C57BL/6 mice or Wistar rats, food intake was measured with overnight fasted animals in individual cages. Food was withdrawn 17 hours prior to injection of lipidated analog of prolactin releasing peptide (PrRP); free access to water was maintained. The administration of either saline, PrRP, or lipidated analogs was performed by SC injection at doses of 1-10 mg/kg (which corresponded to a volume of 0.2 ml/mouse and 0.1 ml/100 g weight of rat). Fifteen minutes after the lipidated analog of prolactin releasing peptide (PrRP) administration, the mice were given pre-weighed food. The food was then weighed every 30 minutes for 5-10 hours. The administration of each dose was performed at least twice, and each group of mice consisted of at least 6 mice.

C57BL/6 mice = assay: Food intake in fasted mice after SC injection; assay type: in vivo; conditions: 5 mg/kg SC, 45 min after injection
How it was run: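 Overnight-fasted animals (food removed 17 h before dosing, water available) in individual cages got saline, PrRP or lipidated PrRP analogs SC at 1-10 mg/kg.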

Row | % of PrRP31, GPR10 human receptor transfected in CHO cells [1] [%] | Ki (rat PrRP receptor; RC-4B/C cells, displacement of 125I-rat PrRP31, read-out: Ki, RC-4B/C rat pituitary cells ^25I-rat PrRP31) [nM] | % of PrRP31, RC-4B/C rat pituitary cells (rat PrRP receptor) [%] | Ki ([1]; CHO cells, human 125I-PrRP31, read-out: Ki, GPR10 human receptor transfected in CHO cells) [nM] | SMILES | Food intake in rats (Wistar rats) | Food intake in mice % of saline-treated group (C57BL/6 mice) [%]
1 | 57 | 0.5 ± 0.13 | 119 | – | CCCCCCCCCCCCCCCC(=O)N[C@@H](CCC(=O)N[C@@H](CO)C(=O)N[C@@H](CCCNC(=N)N)C(=O)N[C@H](C(=O)N[C@@H](Cc1c[nH]cn1)C(=O)N[C@@H](CCCNC(=N)N)C(=O)N[C@@H](Cc1c[nH]cn1)C(=O)N[C@@H](CO)C(=O)N[C@@H](CCSC)C(=O)N[C@@H](CCC(=O)O)C(=O)N[C@H](C(=O)N[C@@H](CCCNC(=N)N)C(=O)N[C@H](C(=O)N1CCC[C@H]1C(=O)N[C@@H](CC(=O)O)C(=O)N[C@H](C(=O)N[C@@H](CC(N)=O)C(=O)N1CCC[C@H]1C(=O)N[C@@H](C)C(=O)N[C@@H](Cc1c[nH]c2ccccc12)C(=O)N[C@@H](Cc1ccc(O)cc1)C(=O)N[C@@H](C)C(=O)N[C@@H](CO)C(=O)N[C@@H](CCCNC(=N)N)C(=O)NCC(=O)N[C@H](C(=O)N[C@@H](CCCNC(=N)N)C(=O)N1CCC[C@H]1C(=O)N[C@H](C(=O)NCC(=O)N[C@@H](CCCNC(=N)N)C(=O)N[C@@H](Cc1ccccc1)C(N)=O)C(C)C)[C@@H](C)CC)[C@@H](C)CC)[C@@H](C)O)[C@@H](C)CC)[C@@H](C)O)C(=O)O [Analog 54] | significantly reduced | 14
2 | 103 | – | 663 | 3.79 ± 0.46 | CCCCCCCCCCCCCCCC(=O)NCCCOCCOCCOCCCNC(=O)CCC(=O)NCCCC[C@H](NC(=O)[C@@H](NC(=O)[C@H](CCC(=O)O)NC(=O)[C@H](CCSC)NC(=O)[C@H](CO)NC(=O)[C@H](Cc1c[nH]cn1)NC(=O)[C@H](CCCNC(=N)N)NC(=O)[C@H](Cc1c[nH]cn1)NC(=O)[C@@H](NC(=O)[C@H](CCCNC(=N)N)NC(=O)[C@@H](N)CO)[C@@H](C)O)[C@@H](C)CC)C(=O)N[C@H](C(=O)N1CCC[C@H]1C(=O)N[C@@H](CC(=O)O)C(=O)N[C@H](C(=O)N[C@@H](CC(N)=O)C(=O)N1CCC[C@H]1C(=O)N[C@@H](C)C(=O)N[C@@H](Cc1c[nH]c2ccccc12)C(=O)N[C@@H](Cc1ccc(O)cc1)C(=O)N[C@@H](C)C(=O)N[C@@H](CO)C(=O)N[C@@H](CCCNC(=N)N)C(=O)NCC(=O)N[C@H](C(=O)N[C@@H](CCCNC(=N)N)C(=O)N1CCC[C@H]1C(=O)N[C@H](C(=O)NCC(=O)N[C@@H](CCCNC(=N)N)C(=O)N[C@@H](Cc1ccccc1)C(N)=O)C(C)C)[C@@H](C)CC)[C@@H](C)CC)[C@@H](C)O [Analog 57] (H-SRTHRHSMEIK([Suc-TTDA(Palmitoyl)])TPDINPAWYASRGIRPVGRF-NH2; N-terminus assumed) | significantly reduced | 10
